According to US8912221B2, “Biaryl amide derivatives” (Hoffmann-La Roche Inc., priority 2010, dated 2014):

Assays:
Bradykinin-1 receptor [1] = target: T1, Bradykinin-1 receptor (Homo sapiens (Human), UniProt P46663); test: Receptor Binding Assay; conditions: membranes from CHO-K1 cells overexpressing Bradykinin-1 receptor; 6 nM [3H]Kallidin (Des Arg10, Leu9); read-out: B1R Binding Ki
Procedure: Binding assays were done with membranes from CHO-K1 cells overexpressing Bradykinin-1 receptor.
For binding, Bradykinin-1 receptor antagonist compounds were added in various concentrations in 50 mM Tris pH 7.4, 5 mM MgCl2 together with 6 nM Kallidin (Des Arg^10, Leu^9), [3,4-Prolyl-3,4-^3H(N)] (PerkinElmer, 1.85-4.44 TBq/mmol) to 40 μg membrane protein containing approximately 1 fmol Bradykinin-1 receptor and incubated for 15 min at 27° C. To determine non-specific binding 10 μM Lys-(Des-Arg^9)-Bradykinin (Bachem) was added. Membranes were harvested through GF/B (glass fiber filter; PerkinElmer) plates, equilibrated with 0.5% polyethylenimine, air dried at 50° C. for 2 hr. Radioactivity was determined by counting in a topcounter (NXT Packard). Specific binding was defined as total binding minus nonspecific binding and typically represents about 90-95% of the total binding. Antagonist activity is expressed as Ki: inhibitor concentration required for 50% inhibition of specific binding corrected for the concentration of the radioligand.

Bradykinin-1 receptor [2] = target: T1, Bradykinin-1 receptor; test: Calcium Mobilization Assay; format: cell-based; conditions: GeneBLAzer Bradykinin (B1)-NFAT-bla CHO-K1 cells; antagonist activity, FLIPR; read-out: Ca mobilization IC50
Procedure: Calcium Mobilization Assay
GeneBLAzer® Bradykinin (B1)-NFAT-bla CHO-K1 cells (from Invitrogen) stably overexpressing the human bradykinin 1 receptor were cultured in DMEM (high glucose) supplemented with 10% dialysed FBS, 1% NEAA (non essential amino acids) 1% penicillin/streptomycin, 1% G418 and 0.1 mg/ml zeocin.
For the assay cells were grown overnight in 384-well black clear flat bottom polystyrene plates (Costar) at 37° C. at 5% CO2. After washing with DMEM, 20 mM Hepes, 2.5 mM probenecid, 0.1% BSA (DMEM assay buffer) cells were loaded with 4 μM Fluo-4 in the same DMEM assay buffer for 2 hours at 30° C. Excess dye was removed and cells were washed with DMEM assay buffer. 384-well compound plates were prepared with DMEM assay buffer/0.5% DMSO with or without various concentrations of test compounds. Usually compounds were tested for agonist and antagonist activity.
Test compounds were added to the assay plate and agonist activity was monitored as fluorescence for 80 seconds with a FLIPR (488 nm excitation; 510-570 nm emission; Molecular Devices). […] Increases in intracellular calcium are reported as maximum fluorescence after agonist exposure minus basal fluorescence before exposure. Antagonist activity is indicated as inhibitor concentration required for 50% inhibition of specific calcium increases.

T1 sequence (P46663 whole entry): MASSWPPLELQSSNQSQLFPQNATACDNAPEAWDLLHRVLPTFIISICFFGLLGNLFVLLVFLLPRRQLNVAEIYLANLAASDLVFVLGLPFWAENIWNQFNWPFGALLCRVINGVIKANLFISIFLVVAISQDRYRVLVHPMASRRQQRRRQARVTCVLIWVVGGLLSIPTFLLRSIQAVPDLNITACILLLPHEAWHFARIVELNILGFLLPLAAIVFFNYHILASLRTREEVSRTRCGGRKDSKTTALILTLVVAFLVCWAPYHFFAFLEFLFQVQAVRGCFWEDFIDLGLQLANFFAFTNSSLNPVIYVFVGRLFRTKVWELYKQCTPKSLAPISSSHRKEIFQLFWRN

SMILES	Ki (Bradykinin-1 receptor [1])	IC50 (Bradykinin-1 receptor [2])
Cc1nnsc1C(=O)NC1(C(=O)N[C@H](C)c2ncc(-c3cc(Cl)cc(Cl)c3OCC(F)F)cc2F)COC1 [Example 41, 4-Methyl-[1,2,3]thiadiazole-5-carboxylic acid [3-((R)-1-{5-[3,5-dichloro-2-(2,2-difluoro-ethoxy)-phenyl]-3-fluoro-pyridin-2-yl}-ethylcarbamoyl)-oxetan-3-yl]-amide]	7.1 nM	3.6 nM
COCC(=O)NC1(C(=O)N[C@H](C)c2ncc(-c3cc(Cl)cc(Cl)c3OCC(F)F)cc2F)COC1 [Example 42, 3-(2-Methoxy-acetylamino)-oxetane-3-carboxylic acid ((R)-1-{5-[3,5-dichloro-2-(2,2-difluoro-ethoxy)-phenyl]-3-fluoro-pyridin-2-yl}-ethyl)-amide]	119 nM	201 nM
COc1cc(C(=O)NC2(C(=O)N[C@H](C)c3ccc(-c4cc(Cl)cc(F)c4-c4nnn(C)n4)cc3F)COC2)on1 [Example 43, 3-Methoxy-isoxazole-5-carboxylic acid (3-{(R)-1-[5′-chloro-3,3′-difluoro-2′-(2-methyl-2H-tetrazol-5-yl)-biphenyl-4-yl]-ethylcarbamoyl}-oxetan-3-yl)-amide]	1.4 nM	0.1 nM
COc1ncc(C(=O)NC2(C(=O)N[C@H](C)c3ccc(-c4cc(Cl)cc(F)c4-c4nnn(C)n4)cc3F)COC2)cn1 [Example 44, 2-Methoxy-pyrimidine-5-carboxylic acid (3-{(R)-1-[5′-chloro-3,3′-difluoro-2′-(2-methyl-2H-tetrazol-5-yl)-biphenyl-4-yl]-ethylcarbamoyl}-oxetan-3-yl)-amide]	1.1 nM	0.1 nM
